Assay results reported in patent US8377943B2, “2,4-diaminopyrimidine derivates as PTK2-inhibitors for the treatment of abnormal cell growth” (Boehringer Ingelheim International GmbH, priority 2008, dated 2013).

Assays:
PTK2 = target: T1, PTK2 (Homo sapiens, UniProt Q05397); experiment: PTK2 Enzyme Test (DELFIA assay, poly-Glu-Tyr substrate); type: biochemical; settings: active PTK2 enzyme, 50 μM ATP in ATP Mix, 1 h pre-incubation
T1 construct: purchased Invitrogen PV3832
Protocol: This test uses active PTK2 enzyme (Invitrogen Code PV3832) and poly-Glu-Tyr (4:1, Sigma P-0275) as the kinase substrate. The kinase activity is detected by means of the phosphorylation of the substrate in a DELFIA™ assay. The phosphorylated substrate is detected with the Europium-labelled phosphotyrosine antibody PY20 (Perkin Elmer, No.: AD0038).
In order to determine concentration-activity curves with PTK2-inhibitors the compounds are serially diluted in 10% DMSO/H2O and 10 μL of each dilution are dispensed per well in a 96-well microtitre plate (clear U-shaped base plate, Greiner No. 650101) (the inhibitors are tested in duplicates) and mixed with 10 μL/well of PTK2 kinase (0.01 μg/well). PTK2 kinase is diluted accordingly beforehand with kinase dilution buffer (20 mM TRIS/HCl pH 7.5, 0.1 mM EDTA, 0.1 mM EGTA, 0.286 mM sodium orthovanadate, 10% glycerol with the addition of freshly prepared BSA (fraction V 1 mg/mL) and DTT (1 mM)). The test compound and the PTK2 kinase are pre-incubated for 1 h at RT and shaken at 500 rpm. Then 20 μL ATP Mix (30 mM TRIS/HCl pH 7.5, 0.02% Brij, 0.2 mM sodium orthovanadate, 10 mM magnesium acetate, 0.1 mM EGTA, 1× Phosphatase Inhibitor Cocktail 1 (Sigma, No.: P2850), 50 μM ATP (Sigma, No.: A3377; 15 mM stock solution)) are added. The reaction is started by the addition of 10 μL/well of poly (Glu,Tyr) substrate (25 μg/well poly (Glu,Tyr), 0.05 μg/well biotinylated poly (Glu,Tyr) dissolved in 250 mM TRIS/HCl pH 7.5, 9 mM DTT)—the final concentration of DMSO is 2%. After 1 h kinase reaction (the plates are shaken at 500 rpm), the reaction is stopped by the addition of 12 μL/well of 100 mM EDTA, pH 8. And shaken for a further 5 min at RT (500 U/min).
55 μL of the reaction mixture are transferred into a streptavidin plate (Strepta Well High Bind (transparent, 96-well) made by Roche, No.: 11989685001) and incubated for 1 h at RT (shaking at 500 rpm). Then the microtitre plate is washed three times with 200 μL/well D-PBS (Invitrogen, No.:14190). 100 μL of 1:2000 diluted DELFIA Eu-N1 Anti-Phosphotyrosine PY20 antibody (Perkin Elmer, No.: AD0038, 1:2000 diluted in DELFIA test buffer (Perkin Elmer, No.: 1244-111)) is then added and it is incubated for 1 h at RT (shaking at 500 rpm). Then the plate is washed three times with 200 μL/well DELFIA washing buffer (Perkin Elmer, No.: 1244-114), 200 μL/well strengthening solution (Perkin Elmer, No.: 1244-105) is added and the whole is incubated for 10 min at RT (shaking at 300 rpm).
The time-delayed europium fluorescence is then measured in a microtitre plate reader (Victor, Perkin Elmer). The positive control consists of wells that contain solvent (2% DMSO in test buffer) and display uninhibited kinase activity. Wells that contain test buffer instead of enzyme act as a control for the background kinase activity.
The IC50 values are determined from concentration-activity analyses by iterative calculation using a sigmoidal curve analysis algorithm (FIFTY, based on GraphPAD Prism Version 3.03) with a variable Hill coefficient.

[1] = target: T2, PTK2-phosphorylation at tyrosine 397 (pY397) (Homo sapiens, UniProt Q05397); experiment: Phospho-PTK2 (pY397) Assay in PC-3 cells; type: cell-based; settings: PC-3 prostate carcinoma cells, 2 h incubation; read-out: PC3pPTK2 Y397 EC50
T2 construct: endogenous in cells; host or cells: PC-3 (ATCC CRL-1435)
Protocol: This cellular test is used to determine the influence of PTK2-inhibitors on the state of the PTK2-phosphorylation at tyrosine 397 (pY397).
PC-3 cells (prostate carcinoma, ATCC CRL-1435) are grown in cell culture flasks (175 cm^2) with F12 Kaighn's Medium (Gibco, No.: 21127) with the addition of 10% foetal calf serum (Invitrogen, No.: 16000-044). The cultures are incubated in the incubator at 37° C. and 5% CO2 and run twice a week.
For the test, 2×10^4 cells pro well/[…] are plated out in 96-well microtitre plates (Costar, No.: 3598) and incubated overnight in the incubator at 37° C. and 5% CO2. The test compounds (10 μL from serial dilution) are added the next day. The concentration of the test compounds usually covers a range of 50 μM and 0.8 nM. The test compounds (stock solution: 10 mM in 100% DMSO) are diluted in medium/medium 10% DMSO such that the final concentration is 1% DMSO. The cells are then incubated in the incubator at 37° C. and 5% CO2 for 2 h. Then the culture supernatant is removed and the cells are fixed with 150 μL 4% formaldehyde in D-PBS for 20 min at RT. The cell lawn is washed five times with 200 μL 0.1% Triton X-100 in D-PBS for 5 min in each case and then incubated for 90 min with blocking buffer (5% skimmed milk powder (Maresi Fixmilch) in TBST (25 mM Tris/HCl, pH 8.0, 150 mM NaCl, 0.05% Tween 20). The blocking buffer is replaced by 50 μL of the first antibody anti-phospho PTK2 [pY397] rabbit monoclonal (Invitrogen/Biosource, No.: 44-625G), which is diluted 1:200 in blocking buffer. For control purposes, alternatively a PTK2 [total] antibody (clone 4.47 mouse monoclonal, Upstate, No.: 05-537), diluted 1:400 in blocking buffer is used. This incubation is carried out at 4° C. overnight. Then the cell lawn is washed five times with 100 μL of 0.1% Tween in D-PBS for 5 min in each case and 50 μL/well of second antibody are added. In order to detect bound phospho-PTK2 [pY397] antibody a goat-anti-rabbit antibody is used which is coupled with horseradish peroxidase (Dako, No.: P0448; 1:500 dilution in blocking buffer). In order to detect bound PTK2 [total]-antibodies a rabbit-anti-mouse antibody is used, which is also coupled with horseradish peroxidase (Dako, No.: PO161; 1:1000 dilution in blocking buffer). This incubation is carried out for 1 h at RT with gentle shaking. The cell lawn is then again washed five times with 100 μL of 0.1% Tween in D-PBS for 5 min in each case. […] The EC50 values are determined from concentration-activity analyses by iterative calculation with the aid of a sigmoidal curve analysis algorithm (FIFTY, based on GraphPAD Prism Version 3.03) with a variable Hill coefficient.

T1 sequence (Q05397 whole entry): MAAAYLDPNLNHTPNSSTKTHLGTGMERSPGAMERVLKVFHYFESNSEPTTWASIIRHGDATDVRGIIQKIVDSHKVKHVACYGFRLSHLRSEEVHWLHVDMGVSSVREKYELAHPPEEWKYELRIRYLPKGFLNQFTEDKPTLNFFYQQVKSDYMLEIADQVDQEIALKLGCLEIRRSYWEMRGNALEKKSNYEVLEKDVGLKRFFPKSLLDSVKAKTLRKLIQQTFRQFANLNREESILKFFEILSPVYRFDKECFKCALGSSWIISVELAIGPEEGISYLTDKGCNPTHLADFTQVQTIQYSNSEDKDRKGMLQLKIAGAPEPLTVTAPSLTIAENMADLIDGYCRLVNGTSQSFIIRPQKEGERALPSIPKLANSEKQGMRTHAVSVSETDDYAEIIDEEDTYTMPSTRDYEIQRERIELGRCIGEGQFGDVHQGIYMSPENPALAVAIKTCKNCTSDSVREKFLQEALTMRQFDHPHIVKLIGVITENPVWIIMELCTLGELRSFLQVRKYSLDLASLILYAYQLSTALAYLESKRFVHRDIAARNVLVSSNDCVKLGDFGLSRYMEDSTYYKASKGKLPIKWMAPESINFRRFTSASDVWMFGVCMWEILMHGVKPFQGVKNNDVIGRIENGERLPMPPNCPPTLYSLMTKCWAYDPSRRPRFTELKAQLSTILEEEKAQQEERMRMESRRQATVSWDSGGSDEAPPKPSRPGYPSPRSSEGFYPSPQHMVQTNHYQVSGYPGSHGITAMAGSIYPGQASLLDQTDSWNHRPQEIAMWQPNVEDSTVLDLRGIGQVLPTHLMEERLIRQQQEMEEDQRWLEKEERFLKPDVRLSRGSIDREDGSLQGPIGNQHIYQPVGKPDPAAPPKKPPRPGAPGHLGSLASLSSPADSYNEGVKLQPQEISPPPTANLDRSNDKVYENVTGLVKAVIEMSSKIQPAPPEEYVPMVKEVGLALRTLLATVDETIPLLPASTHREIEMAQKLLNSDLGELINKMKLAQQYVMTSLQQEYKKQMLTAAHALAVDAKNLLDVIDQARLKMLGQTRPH
T2 sequence (Q05397 whole entry): as above

IC50 (PTK2) | EC50 [1] | SMILES
2 nM | 0.14 nM | COc1cc(C(=O)N[C@@H]2CCCN(C(C)C)C2)ccc1Nc1ncc(C(F)(F)F)c(NCc2ccc(C)cc2N(C)S(C)(=O)=O)n1 [Example 10]
4 nM | 0.39 nM | COc1cc(N2CCN(CC(=O)N3CCOCC3)CC2)ccc1Nc1ncc(C(F)(F)F)c(NCc2ccc(C)cc2N(C)S(C)(=O)=O)n1 [Example 42]
0.98 nM | 1 nM | Cc1ccc(CNc2nc(Nc3ccc(C(=O)NC4CCN(C)CC4)cc3C)ncc2C(F)(F)F)c(N(C)S(C)(=O)=O)c1 [Example 80]
0.85 nM | 3 nM | CC(=O)Nc1ccc(Nc2ncc(C(F)(F)F)c(NCc3ccc(C)cc3N(C)S(C)(=O)=O)n2)cc1C [Example 117]
5 nM | 0.22 nM | CCOCCNC(=O)c1ccc(Nc2ncc(C(F)(F)F)c(NCc3ccc(C)cc3N(C)S(C)(=O)=O)n2)c(OC)c1 [Example 21]
5 nM | 3 nM | COC(=O)Nc1cc(OC)c(Nc2ncc(C(F)(F)F)c(NCc3ccc(C)cc3N(C)S(C)(=O)=O)n2)cc1C [Example 124]
0.8 nM | 2 nM | COc1cc(Nc2ncc(C(F)(F)F)c(NCc3ccc(C)cc3N(C)S(C)(=O)=O)n2)ccc1NC(C)=O [Example 103]
4 nM | 0.17 nM | COCCNC(=O)c1ccc(Nc2ncc(C(F)(F)F)c(NCc3ccc(C)cc3N(C)S(C)(=O)=O)n2)c(OC)c1 [Example 14]
1 nM | 2 nM | COc1cc(N2CCN(C)CC2)ccc1Nc1ncc(C(F)(F)F)c(NCc2ccc(F)cc2N(C)S(C)(=O)=O)n1 [Example 99]
3 nM | 0.31 nM | COc1cc(C(N)=O)c(Br)cc1Nc1ncc(C(F)(F)F)c(NCc2ccc(C)cc2N(C)S(C)(=O)=O)n1 [Example 34]
2 nM | 0.42 nM | COc1cc(C(=O)NC2CCN(C3CCOCC3)CC2)ccc1Nc1ncc(C(F)(F)F)c(NCc2ccc(C)cc2N(C)S(C)(=O)=O)n1 [Example 44]
2 nM | 3 nM | COc1cc(N2CCN(C3CCN(C)CC3)CC2)ccc1Nc1ncc(C(F)(F)F)c(NCc2ccc(C)cc2N(C)S(C)(=O)=O)n1 [Example 112]
2 nM | 0.52 nM | CCc1cc(C(=O)NC2CCN(C)CC2)ccc1Nc1ncc(C(F)(F)F)c(NCc2ccc(C)cc2N(C)S(C)(=O)=O)n1 [Example 50]
1 nM | 0.11 nM | COc1cc(CN(C)C)ccc1Nc1ncc(C(F)(F)F)c(NCc2ccc(C)cc2N(C)S(C)(=O)=O)n1 [Example 3]
4 nM | 0.3 nM | COc1cc(N2CCN(C3COC3)CC2)ccc1Nc1ncc(C(F)(F)F)c(NCc2ccc(C)cc2N(C)S(C)(=O)=O)n1 [Example 32]
1 nM | 0.29 nM | COc1cc(C(=O)NC2CCC(N(C)C(C)C)CC2)ccc1Nc1ncc(C(F)(F)F)c(NCc2ccc(C)cc2N(C)S(C)(=O)=O)n1 (stereo not drawn) [Example 31]
1 nM | 0.7 nM | CCNCc1ccc(Nc2ncc(C(F)(F)F)c(NCc3ccc(C)cc3N(C)S(C)(=O)=O)n2)c(OC)c1 [Example 66]
2 nM | 0.3 nM | COc1cc(N2CCN(CC(=O)N(C)C)CC2)ccc1Nc1ncc(C(F)(F)F)c(NCc2ccc(C)cc2N(C)S(C)(=O)=O)n1 [Example 33]
1 nM | 2 nM | COc1cc(C(=O)NC2CCN(C)CC2)c(C)cc1Nc1ncc(C(F)(F)F)c(NCc2ccc(C)cc2N(C)S(C)(=O)=O)n1 [Example 100]
2 nM | 0.16 nM | COc1cc(C(=O)NCCn2ccnc2)ccc1Nc1ncc(C(F)(F)F)c(NCc2ccc(C)cc2N(C)S(C)(=O)=O)n1 [Example 13]
4 nM | 0.67 nM | COc1cc(C(=O)N[C@H]2CC[C@@H]3[C@@H](CCN3C)C2)ccc1Nc1ncc(C(F)(F)F)c(NCc2ccc(C)cc2N(C)S(C)(=O)=O)n1 [Example 65]
2 nM | 1 nM | COc1cc(N2CCN(CC(=O)N(C)C)CC2)ccc1Nc1ncc(C(F)(F)F)c(NCc2ccc(F)cc2N(C)S(C)(=O)=O)n1 [Example 82]
1 nM | 1 nM | CNC(=O)c1ccc(Nc2ncc(C(F)(F)F)c(NCc3ccc(OC)cc3N(C)S(C)(=O)=O)n2)c(OC)c1 [Example 81]
1 nM | 3 nM | COc1cc(C(=O)NC2CCN(C)CC2)ccc1Nc1ncc(C(F)(F)F)c(NCc2ccc(Cl)cc2N(C)S(C)(=O)=O)n1 [Example 111]
3 nM | 1 nM | COc1cc(C(=O)N[C@@H]2CCCN(CC3CC3)C2)ccc1Nc1ncc(C(F)(F)F)c(NCc2ccc(C)cc2N(C)S(C)(=O)=O)n1 [Example 85]
2 nM | 3 nM | CCc1cc(C(=O)NOC)ccc1Nc1ncc(C(F)(F)F)c(NCc2ccc(C)cc2N(C)S(C)(=O)=O)n1 [Example 122]
4 nM | 0.51 nM | COc1cc(C(=O)NC2CCC(NC(C)=O)CC2)ccc1Nc1ncc(C(F)(F)F)c(NCc2ccc(C)cc2N(C)S(C)(=O)=O)n1 (stereo not drawn) [Example 48]
4 nM | 3 nM | COc1cc(C(=O)N[C@H]2CC[C@H](N3C[C@@H](C)O[C@@H](C)C3)CC2)ccc1Nc1ncc(C(F)(F)F)c(NCc2ccc(C)cc2N(C)S(C)(=O)=O)n1 [Example 114]
2 nM | 2 nM | COc1cc(CNC2CCCCC2)ccc1Nc1ncc(C(F)(F)F)c(NCc2ccc(C)cc2N(C)S(C)(=O)=O)n1 [Example 109]

SMILES | IC50 (PTK2) | EC50 [1]
COc1cc(C(=O)N[C@H]2CN3CCC2CC3)ccc1Nc1ncc(C(F)(F)F)c(NCc2ccc(C)cc2N(C)S(C)(=O)=O)n1 [Example 28] | 4 nM | 0.27 nM
